Broadly, the LD50 is the dose expected to kill half of the subjects tested. A lower LD50 goes with greater toxicity.

This note sets out measurements from patent publication EP0129628A1, “Medicine, especially useful in psychiatry, which uses as the active constituent a lithium N-alkylcarbamoyl phosphate” (Richard, Marcel, priority 1983, dated 1985).

One data set deals with motilité. The data set is described as follows: motility test. As to conditions: dose de 13,5 MEq par kilo (carbonate de lithium: dose correspondante). The format is in vivo, souris et/ou des chiens.
The subject of the next data set is sécrétion de sérotonine. The data set is described as follows: test on serotonin secretion. Format: in vivo, souris et/ou des chiens.
In data set [1] the test system is systèmes dopaminer- gines. The data set is described as follows: test evaluating blockade of the dopaminergic systems. The format is in vivo, souris et/ou des chiens.
The test system of a further data set is test plaque chaude. As to the kind of experiment: comparative analgesic activity (hot plate test). Format: in vivo, souris et/ou des chiens. Conditions: dose de 13 MEq par kilo. In general terms: Hot-plate and tail-flick tests time the reaction to a heat stimulus.
The test system of data set [2] is convulsions produites par un électrochoc. As to the kind of experiment: convulsions produced by electroshock. The format is in vivo, souris et/ou des chiens. As to conditions: dose de 5 MEq par kilo.
Data set [3] is described as follows: acute toxicity (DL50), oral route. Conditions: mouse, in vivo, souris, par voie orale. As for the experimental part:
L'invention concerne enfin les médicaments qui contiennent au moins un produit de formule (1). Il a été trouvé en effet que les produits de formule (1) avaient une toxicité faible (la DL50 pour la souris et pour le produit de formule 1 dans lequel R est CH3 étant environ 3 200 mg/kg par voie orale) et une activité pharmacologique qui peut s'exprimer comme suit : • - diminution et/ou blocage des systèmes dopaminer- giques, • - augmentation, au moins transitoire, de la systhè- se de la sérotonine, • - pouvoir analgésique, les conséquences de ces actions se retrouvant dans les constatations suivantes : • - diminution de l'agressivité, • - diminution de la motilité et de la curiosité, • - protection contre les convulsions.

In data set [4] the test system is agressivité induite par des chocs électriques. As to the kind of experiment: aggressiveness induced by electric shocks. The format is in vivo, souris et/ou des chiens.

On to `O=C(O)O` [carbonate de lithium, reference compound], for which, in the data set with motilité, the “la motilité baisse” value was 12%. Further, the “dose active après 24 heures” value with sécrétion de sérotonine was 10 MEq par kilo. For the same molecule, the “dose active à 50 %” value in data set [1] is on record as 10,115 MEq par kilo. In addition, the protection with test plaque chaude was 27%.
`CNC(=O)OP(=O)(O)O` [N-méthyl-carbamoylphosphate de lithium] gave a protection des sujets in data set [2] of 40%. For the same molecule, the “la motilité baisse” value in the data set on motilité was found to be 36%. In data set [3], this molecule showed a median lethal dose (LD50) of about 3200 mg/kg. For the same molecule, the “dose active après 24 heures” value with sécrétion de sérotonine was 6,75 MEq par kilo. Further, in data set [1], the “dose active à 100 %” value is on record as 6,75 MEq par kilo. The same molecule came in with a protection with test plaque chaude of 42%. The same molecule came in with a dose active in data set [4] of 10 MEq par kilo.
